Legend:
[1] = system: IST-MES1 (Mesothelioma); experiment: combination Emax (second highest fraction inhibited in the dose matrix, 72 h); higher = more inhibition; extreme values may be limits of the assay
Summary of the method: (§1)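 Bliss excess equals the observed combination effect minus the expected value EA + EB − EA·EB, where EA and EB are the effects of each agent alone. Combination Emax is the second-highest inhibition within the matrix. Inhibition was scaled from CellTiter-Glo 2.0 luminescence, with 0 set by vehicle wells and 1 by blank wells, after 72 hours of two-drug dosing of cells plated in 1536-well plates.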

[2] = system: SHP-77 (Small Cell Lung Carcinoma); experiment: as above
Summary of the method: as §1

[3] = system: PANC-03-27 (Pancreatic Carcinoma); experiment: as above
Summary of the method: as §1

[4] = system: RKN (Other Solid Carcinomas); experiment: as above
Summary of the method: as §1

[5] = system: SK-PN-DW (Other Solid Carcinomas); experiment: as above
Summary of the method: as §1

[6] = system: MFE-280 (Endometrial Carcinoma); experiment: as above
Summary of the method: as §1

[7] = system: LK-2 (Squamous Cell Lung Carcinoma); experiment: as above
Summary of the method: as §1

[8] = system: COLO-680N (Esophageal Squamous Cell Carcinoma); experiment: as above
Summary of the method: as §1

[9] = system: RCM-1 (Colorectal Carcinoma); experiment: as above
Summary of the method: as §1

[10] = system: CAL-62 (Thyroid Gland Carcinoma); experiment: as above
Summary of the method: as §1

[11] = system: PSN1 (Pancreatic Carcinoma); experiment: as above
Summary of the method: as §1

[12] = system: SF539 (Glioblastoma); experiment: as above
Summary of the method: as §1

[13] = system: MKN45 (Gastric Carcinoma); experiment: as above
Summary of the method: as §1

[14] = system: OVMIU (Ovarian Carcinoma); experiment: as above
Summary of the method: as §1

[15] = system: L-1236 (Hodgkin's Lymphoma); experiment: as above
Summary of the method: as §1

[16] = system: TE-8 (Esophageal Squamous Cell Carcinoma); experiment: as above
Summary of the method: as §1

[17] = system: IST-MES1 (Mesothelioma); experiment: Bliss excess, mean over the matrix (fraction); higher = more synergy
Summary of the method: as §1

[18] = system: REH (B-Lymphoblastic Leukemia); experiment: as above
Summary of the method: as §1

[19] = system: PSN1 (Pancreatic Carcinoma); experiment: as above
Summary of the method: as §1

[20] = system: SF539 (Glioblastoma); experiment: as above
Summary of the method: as §1

SMILES	combination Emax [1]	combination Emax [2]	combination Emax [3]	combination Emax [4]	combination Emax [5]	combination Emax [6]	combination Emax [7]	combination Emax [8]	combination Emax [9]	combination Emax [10]	combination Emax [11]	combination Emax [12]	combination Emax [13]	combination Emax [14]	combination Emax [15]	combination Emax [16]	Bliss excess [17]	Bliss excess [18]	Bliss excess [19]	Bliss excess [20]
C=CCn1c(=O)c2cnc(Nc3ccc(N4CCN(C)CC4)cc3)nc2n1-c1cccc(C(C)(C)O)n1 [AZD1775] + CCc1c2c(nc3ccc(O)cc13)-c1cc3c(c(=O)n1C2)COC(=O)[C@]3(O)CC [SN-38] (first compound max 1 µM, partner max 0.3 µM)	0.778	0.651	0.844	0.817	0.947	0.87	0.975	0.483	0.775	0.893	0.927	0.997	0.843	0.587	0.969	0.923	0.0008	-0.0887	-0.0499	-0.0037
C=CCn1c(=O)c2cnc(Nc3ccc(N4CCN(C)CC4)cc3)nc2n1-c1cccc(C(C)(C)O)n1 [AZD1775] + Nc1ccn([C@@H]2O[C@H](CO)[C@@H](O)C2(F)F)c(=O)n1 [Gemcitabine] (first compound max 1 µM, partner max 0.3 µM)	0.831	0.676	0.703	0.633	0.864	0.655	0.982	0.419	0.593	0.826	0.832	0.986	0.753	0.608	0.954	0.806	0.0603	-0.0139	0.0451	0.0282
CN(CCO)CC[C@H](CSc1ccccc1)Nc1ccc(S(=O)(=O)NC(=O)c2ccc(N3CCC([C@@H](O)c4ccccc4-c4ccc(Cl)cc4)CC3)cc2)cc1S(=O)(=O)C(F)(F)F [AZD4320] + CC(=O)O[C@H]1C(=O)[C@@]2(C)[C@H]([C@H](OC(=O)c3ccccc3)[C@]3(O)C[C@H](OC(=O)[C@H](O)[C@@H](NC(=O)c4ccccc4)c4ccccc4)C(C)=C1C3(C)C)[C@]1(OC(C)=O)CO[C@@H]1C[C@@H]2O [Paclitaxel] (first compound max 1 µM, 7x7, partner max 3 µM)	0.873	1	0.885	0.994	0.918	0.979	1	0.771	0.54	0.951	0.942	1	0.751	0.929	1	0.967	0.0787	0.0132	0.0166	0.0404
CN(CCO)CC[C@H](CSc1ccccc1)Nc1ccc(S(=O)(=O)NC(=O)c2ccc(N3CCC([C@@H](O)c4ccccc4-c4ccc(Cl)cc4)CC3)cc2)cc1S(=O)(=O)C(F)(F)F [AZD4320] + CS(=O)(=O)CCNCc1ccc(-c2ccc3ncnc(Nc4ccc(OCc5cccc(F)c5)c(Cl)c4)c3c2)o1 [Lapatinib] (first compound max 1 µM, 7x7, partner max 10 µM)	0.892	0.969	0.907	0.212	0.85	0.962	0.977	0.481	0.901	0.911	0.267	0.575	0.2	0.971	1	0.744	0.0367	0.0721	-0.0405	-0.0026
CN(CCO)CC[C@H](CSc1ccccc1)Nc1ccc(S(=O)(=O)NC(=O)c2ccc(N3CCC([C@@H](O)c4ccccc4-c4ccc(Cl)cc4)CC3)cc2)cc1S(=O)(=O)C(F)(F)F [AZD4320] + Nc1ccn([C@@H]2O[C@H](CO)[C@@H](O)C2(F)F)c(=O)n1 [Gemcitabine] (first compound max 1 µM, 7x7, partner max 0.3 µM)	0.8	0.549	0.737	0.275	0.165	0.8	0.916	0.3	0.37	0.911	0.885	0.945	0.582	0.596	1	0.57	0.0448	0.0126	-0.0027	-0.0356
Cc1c2c(nn1C)CSCc1cc(n(C)n1)CSc1cc(c3ccccc3c1)OCCCc1c(C(=O)O)n(C)c3c-2c(Cl)ccc13 [AZD5991] + CC(=O)O[C@H]1C(=O)[C@@]2(C)[C@H]([C@H](OC(=O)c3ccccc3)[C@]3(O)C[C@H](OC(=O)[C@H](O)[C@@H](NC(=O)c4ccccc4)c4ccccc4)C(C)=C1C3(C)C)[C@]1(OC(C)=O)CO[C@@H]1C[C@@H]2O [Paclitaxel] (first compound max 1 µM, 7x7, partner max 3 µM)	0.651	0.971	0.688	0.839	0.952	0.574	0.986	0.476	0.342	0.81	0.746	0.971	0.709	0.735	0.846	0.702	-0.007	-0.0011	0.0098	0.0053
Cc1c2c(nn1C)CSCc1cc(n(C)n1)CSc1cc(c3ccccc3c1)OCCCc1c(C(=O)O)n(C)c3c-2c(Cl)ccc13 [AZD5991] + CS(=O)(=O)CCNCc1ccc(-c2ccc3ncnc(Nc4ccc(OCc5cccc(F)c5)c(Cl)c4)c3c2)o1 [Lapatinib] (first compound max 1 µM, 7x7, partner max 10 µM)	0.615	0.42	0.558	0.205	0.956	0.347	0.186	0.291	0.409	0.237	0.316	0.479	0.245	0.687	0.798	0.409	0.0139	-0.038	-0.045	0.0226
Cc1c2c(nn1C)CSCc1cc(n(C)n1)CSc1cc(c3ccccc3c1)OCCCc1c(C(=O)O)n(C)c3c-2c(Cl)ccc13 [AZD5991] + Nc1ccn([C@@H]2O[C@H](CO)[C@@H](O)C2(F)F)c(=O)n1 [Gemcitabine] (first compound max 1 µM, 7x7, partner max 0.3 µM)	0.742	0.595	0.549	0.107	0.815	0.468	0.674	0.365	0.392	0.751	0.846	0.886	0.64	0.551	0.806	0.574	-0.0208	-0.0103	-0.0486	0.0133
C[C@@H]1COCCN1c1cc(C2([S@](C)(=N)=O)CC2)nc(-c2ccnc3[nH]ccc23)n1 [AZD6738] + C1CC(C1)(C(=O)[O-])C(=O)[O-].N.N.[Pt+2] [Carboplatin] (first compound max 10 µM, 7x7, partner max 10 µM)	0.461	0.506	0.652	0.286	0.903	0.302	0.406	0.287	0.638	0.684	0.435	0.875	0.708	0.547	0.807	0.522	-0.0502	0.0175	-0.0278	-0.0835
C[C@@H]1COCCN1c1cc(C2([S@](C)(=N)=O)CC2)nc(-c2ccnc3[nH]ccc23)n1 [AZD6738] + Nc1ccn([C@@H]2O[C@H](CO)[C@@H](O)C2(F)F)c(=O)n1 [Gemcitabine] (first compound max 10 µM, 7x7, partner max 0.3 µM)	0.798	0.931	0.737	0.788	0.957	0.864	0.918	0.529	0.744	0.871	0.893	0.981	0.756	0.517	0.918	0.83	-0.0097	0.0497	0.0209	0.0251
Cc1cc2ncnn2cc1Nc1ncc2c(n1)n(C1CCOCC1)c(=O)n2C [AZD7648] + COc1cc([C@@H]2c3cc4c(cc3[C@@H](O[C@@H]3O[C@@H]5CO[C@@H](C)O[C@H]5[C@H](O)[C@H]3O)[C@H]3COC(=O)[C@H]23)OCO4)cc(OC)c1O [Etoposide] (first compound max 10 µM, 7x7, partner max 10 µM)	0.685	0.546	0.619	0.598	0.918	0.889	0.784	0.404	0.515	0.829	0.834	0.934	0.582	0.498	0.845	0.602	0.116	0.158	0.0771	0.136
C[C@@H](Nc1cc(F)cc(F)c1)c1cc(C(=O)N(C)C)cc2c(=O)cc(N3CCOCC3)oc12 [AZD8186] + C1CN(CCC1(C(=O)N[C@@H](CCO)C2=CC=C(C=C2)Cl)N)C3=NC=NC4=C3C=CN4 [AZD5363] (first compound max 10 µM, 7x7, partner max 10 µM)	0.267	0.275	0.315	0.328	0.575	0.546	0.177	0.245	0.233	0.165	0.357	0.538	0.455	0.509	0.722	0.455	-0.0703	-0.023	-0.0065	0.0225

— the supplement of paper PMC11061612
